Source: US20150344540A1, “NOVEL GLP-1 RECEPTOR AGONISTS WITH CHOLESTEROL EFFLUX ACTIVITY” (NOVO NORDISK A/S, priority 2012, published 2015)
Where a SMILES comes first, the peptide text is derived from it. Where no end group is shown, it is not given here. [ ]: non-standard residue; d: D form. Aib = CC(C)(N)C(=O)O

System: Mouse monocyte/macrophage cell line, RAW 264.7
Experiment: Cholesterol efflux assay (3H-cholesterol, macrophage cell line)
Format: cell-based
Settings: RAW 264.7, 4 hrs incubation, 0.1% human serum albumin; for 4 h Cholesterol Efflux Emax: ABCA1-mediated efflux; for EC50: read-out: 4 h Cholesterol Efflux EC50, ABCA1-mediated efflux (CPT-cAMP induced minus non-induced)

Molecule | 4 h Cholesterol Efflux Emax [%] | EC50 [nM]
CC[C@H](C)[C@H](NC(=O)[C@H](Cc1ccccc1)NC(=O)[C@H](CCC(=O)O)NC(=O)[C@H](CCCCN)NC(=O)[C@@H](NC(=O)[C@H](CCCCN)NC(=O)[C@H](CCC(=O)O)NC(=O)CNC(=O)[C@H](CCC(=O)O)NC(=O)[C@H](CC(C)C)NC(=O)[C@H](Cc1ccc(O)cc1)NC(=O)[C@H](CO)NC(=O)[C@H](CO)NC(=O)[C@@H](NC(=O)[C@H](CC(=O)O)NC(=O)[C@H](CO)NC(=O)[C@@H](NC(=O)[C@H](Cc1ccccc1)NC(=O)[C@@H](NC(=O)CNC(=O)[C@H](CCC(=O)O)NC(=O)C(C)(C)NC(=O)[C@@H](N)Cc1c[nH]cn1)[C@@H](C)O)[C@@H](C)O)C(C)C)C(C)C)C(=O)N[C@@H](CCC(=O)O)C(=O)N[C@@H](Cc1c[nH]cn1)C(=O)N[C@@H](CC(C)C)C(=O)N[C@H](C(=O)N[C@@H](CCC(=O)O)C(=O)N[C@@H](CCCCN)C(=O)N[C@@H](Cc1ccccc1)C(=O)N[C@@H](CCCCN)C(=O)N[C@@H](CCC(=O)O)C(=O)N[C@@H](Cc1ccccc1)C(=O)N[C@@H](Cc1ccccc1)C(N)=O)C(C)C [Compound 96, [Aib8,Glu23,Lys24,Val25,Glu30,His31,Glu34,Lys35,Phe36,Lys37]-GLP-1-(7-37)-peptidyl-Glu-Phe-Phe amide] (H-H[Aib]EGTFTSDVSSYLEGEKVKEFIEHLVEKFKEFF-NH2) | 123 | –
CC[C@H](C)[C@H](NC(=O)[C@H](Cc1ccccc1)NC(=O)[C@H](CCC(=O)O)NC(=O)[C@H](CCCNC(=N)N)NC(=O)[C@@H](NC(=O)[C@H](C)NC(=O)[C@H](CCC(=O)O)NC(=O)CNC(=O)[C@H](CCC(=O)O)NC(=O)[C@H](CCSC)NC(=O)[C@H](CCC(N)=O)NC(=O)[C@H](CCCCN)NC(=O)[C@H](CO)NC(=O)[C@H](CC(C)C)NC(=O)[C@H](CC(=O)O)NC(=O)[C@H](CO)NC(=O)[C@@H](NC(=O)[C@H](Cc1ccccc1)NC(=O)[C@@H](NC(=O)CNC(=O)[C@H](CCC(=O)O)NC(=O)C(C)(C)NC(=O)[C@@H](N)Cc1c[nH]cn1)[C@@H](C)O)[C@@H](C)O)C(C)C)C(=O)N[C@@H](CCC(=O)O)C(=O)N[C@@H](Cc1c[nH]c2ccccc12)C(=O)N[C@@H](CC(C)C)C(=O)N[C@@H](CCCCN)C(=O)N[C@@H](CC(N)=O)C(=O)N[C@@H](CCCCN)C(=O)NC(C)(C)C(=O)N[C@@H](CC(C)C)C(=O)N[C@@H](CCC(=O)O)C(=O)N[C@@H](Cc1ccccc1)C(=O)N[C@@H](CC(C)C)C(=O)N[C@@H](CCC(=O)O)C(=O)N[C@@H](CC(C)C)C(=O)N[C@@H](CC(C)C)C(N)=O [Compound 2, [Aib2, Glv16,Glu21,Lys29,Aib30,Leu31,Glu32,Phe33,Leu34,Glu35,Leu36,Leu371-Exendin-4-(1-37)-peptide amide] (H-H[Aib]EGTFTSDLSKQMEGEAVREFIEWLKNK[Aib]LEFLELL-NH2; N-terminus assumed) | 83 | –
CC[C@H](C)[C@H](NC(=O)[C@H](Cc1ccccc1)NC(=O)[C@H](CCC(=O)O)NC(=O)[C@H](CCCCN)NC(=O)[C@@H](NC(=O)[C@H](C)NC(=O)[C@H](CCC(=O)O)NC(=O)CNC(=O)[C@H](CCC(=O)O)NC(=O)[C@H](CC(C)C)NC(=O)[C@H](Cc1ccc(O)cc1)NC(=O)[C@H](CO)NC(=O)[C@H](CO)NC(=O)[C@@H](NC(=O)[C@H](CC(=O)O)NC(=O)[C@H](CO)NC(=O)[C@@H](NC(=O)[C@H](Cc1ccccc1)NC(=O)[C@@H](NC(=O)CNC(=O)[C@H](CCC(=O)O)NC(=O)C(C)(C)NC(=O)[C@@H](N)Cc1c[nH]cn1)[C@@H](C)O)[C@@H](C)O)C(C)C)C(C)C)C(=O)N[C@@H](C)C(=O)N[C@@H](Cc1c[nH]c2ccccc12)C(=O)N[C@@H](CC(C)C)C(=O)N[C@H](C(=O)N[C@@H](CCC(=O)O)C(=O)N[C@@H](CCCCN)C(=O)NC(C)(C)C(=O)N[C@@H](CCCCN)C(=O)N[C@@H](CCC(=O)O)C(=O)N[C@@H](Cc1ccccc1)C(=O)N[C@@H](CC(C)C)C(=O)N[C@@H](CCC(=O)O)C(=O)O)C(C)C [Compound 100, [Aib8,Glu23,Val25,Glu34,Lys35,Aib36,Lys37]-GLP-1-(7-37)-peptidyl-Glu-Phe-Leu-Glu] | 104 | 690
HAQGTFTSDYSKYLDSKAAREFVQWLLEKVKEFL-NH2 [Compound 68] | – | 270
